Values joined by “and” are separate entries in the source; they are usually repeats but may differ in a detail not shown here. Identical values can stand only once.
System: Normal Humane Dermalen Fibroblasten (NHDF)
Test: Collagen synthesis stimulation in aged NHDF monolayer culture, Sirius Red staining (OD 540 nm)
Format: cell-based, Human
Conditions: 48 h incubation
Source text: Verantwortlich für die Collagensynthese in der Dermis-Schicht der Haut sind Fibroblasten. Als Testsystem werden Normal Humane Dermalen Fibroblasten (NHDF) in einer so genannten Monolayer-Kultur in 96-Well-MTPs kultiviert, über einen definierten Zeitraum mit Testsubstanzen inkubiert und anschließend die Collagenzunahme […] über eine Färbemethode bestimmt.
Das Assay-Prinzip basiert auf der histologischen, spezifischen Anfärbung von löslichem Collagen (vorwiegend Collagen Typ I und III) mit Hilfe des Farbstoffes Sirius Red (Direct Red 80). Sirius Red ist ein anionischer Farbstoff an dessen Seitenketten Sulphonsäuregruppen angelagert sind. Diese Sulphonsäuregruppen reagieren mit den Seitenkettengruppen der im Collagen vorwiegend vorkommenden Aminosäuren (Prolin, Hydroxyprolin, Lysin und Hydroxylysin), wobei eine intakte Collagenstruktur gegeben sein muss. [drawing 1]
Als Vorlage für das Assay-Design dient die bei B.J.Walsh et al., Analytical Biochemistry 203, 187-190 (1992) beschriebene Vorgehensweise zur quantitativen Bestimmung von Collagen im 96-Well Maßstab.
Die Collagensynthese steigernde Wirkung der Testsubstanzen wird an in vitro gealterten (>8. Passage) NHDF in 96-Well Mikrotiterplatten (2*10^4 Zellen pro Well) getestet. Für jedes Prüfmuster muss zuvor ein geeignetes Lösungsmittel ermittelt werden, in dem eine Stocklösung des Prüfmusters angesetzt wird. Die Inkubationslösungen der Testsubstanzen werden anschließend in mit 0,2% BSA supplementiertem DMEM hergestellt. Mögliche Lösungsmittel sollten in allen Verdünnung der Inkubationslösung max. 0,2 %ig vorliegen. Die maximale Einsatzkonzentration der Testsubstanzen resultiert aus den in der Zytotoxizitäts-Untersuchung (Resazurin-Assay an 3T3 Maus Fibroblasten) gewonnen IC20-Werten und ist auf 0,1*IC20 festgelegt.
Nach einer 24h-igen Adaptionsphase der NHDF werden die Zellen für 48 h mit den Inkubationslösungen und entsprechenden Kontroll-Lösungen (Lösungsmittel und Blank) inkubiert (37°C, 5% CO2). […]

[1] = Tabelle 2, Einsatzkonzentration 1.020 mg/ml

Row | Compound | Collagensynthese Steigerung [%], bezogen auf unbehandelte Kontrolle [1] [%] | Collagensynthese Steigerung [%], bezogen auf unbehandelte Kontrolle (Tabelle 1, Einsatzkonzentration 0.362 mg/ml)
1 | O=C1O[C@H]([C@@H](O)CO)C([O-])=C1OP(=O)([O-])[O-].O=C1O[C@H]([C@@H](O)CO)C([O-])=C1OP(=O)([O-])[O-].[Mg+2].[Mg+2].[Mg+2] [Magnesium Ascorbylphosphat (Bio1300/1), Magnesium Ascorbylphosphat] | 141.13 | –
2 | O=C1O[C@H]([C@@H](O)CO)C([O-])=C1OP(=O)([O-])[O-].[Na+].[Na+].[Na+] [Natrium Ascorbylphosphat (Bio1586), Natrium Ascorbylphosphat] | 144.57 | –
3 | O=C1O[C@H]([C@@H](O)CO)C(O)=C1OP(=O)(O)O [Magnesium Ascorbylphosphat (Bio172), Magnesium Ascorbylphosphat] | – | 66.97% and 67.44%

Source: patent EP2100593B1, “Ternary mixtures with increased collagen synthesis” (Symrise AG, priority 2008, dated 2009)
